Laboratory results taken from patent US20260042731A1, “(2,4-DICHLOROPHENOXY)ACETIC ACID ANALOGS” (CORTEVA AGRISCIENCE LLC, priority 2022, published 2026).
Read-outs that look alike come from different tables or passages of the source.

Columns and labels:
[1] = Volatility of compounds measured by thermogravimetric analysis (TGA); format: physicochemical
[2] = tested on: ABUTH, AMATA, AMBEL, CHEAL, ERICA weeds; test: Postemergence herbicide evaluation, overall average % weed control across ABUTH, AMATA, AMBEL, CHEAL, ERICA; format: in vivo
From the text: For example, the pesticidal activity may include herbicidal activity.

[3] = tested on: Amaranthus rudis (AMATA), tall water hemp; test: Postemergence herbicide evaluation, growth of Amaranthus rudis (AMATA); format: in vivo; settings: Amaranthus tuberculatus, post-emergence, read-out: Ave. AMATA, percent reduction in plant size relative to the untreated control; for pest or weed control at 280 g/ha: 280 g ae/ha; for pest or weed control at 560 g/ha: 560 g ae/ha
[4] = tested on: Ambrosia artemisiifolia (AMBEL), common ragweed; test: Postemergence herbicide evaluation, growth of Ambrosia artemisiifolia (AMBEL); format: in vivo; settings: Ambrosia artemisiifolia, post-emergence, read-out: AVE. AMBEL, percent reduction in plant size relative to the untreated control; for pest or weed control at 280 g/ha: 280 g ae/ha; for pest or weed control at 560 g/ha: 560 g ae/ha
[5] = tested on: Abutilon theophrasti (ABUTH), velvetleaf; test: Postemergence herbicide evaluation, growth of Abutilon theophrasti (ABUTH); format: in vivo; settings: Abutilon theophrasti, post-emergence, read-out: AVE. ABUTH, percent reduction in plant size relative to the untreated control; for pest or weed control at 280 g/ha: 280 g ae/ha; for pest or weed control at 560 g/ha: 560 g ae/ha
[6] = tested on: Chenopodium album (CHEAL), common lambsquarters; test: Postemergence herbicide evaluation, growth of Chenopodium album (CHEAL); format: in vivo; settings: Chenopodium album, post-emergence, read-out: Ave. CHEAL, percent reduction in plant size relative to the untreated control; for pest or weed control at 280 g/ha: 280 g ae/ha; for pest or weed control at 560 g/ha: 560 g ae/ha
[7] = tested on: glyphosate resistant Conyza canadensis (L.) (ERICA), horseweed; test: Postemergence herbicide evaluation, growth of Conyza canadensis (ERICA); format: in vivo; settings: Erigeron canadensis, post-emergence, read-out: Ave. ERICA, percent reduction in plant size relative to the untreated control; for pest or weed control at 280 g/ha: 280 g ae/ha; for pest or weed control at 560 g/ha: 560 g ae/ha
[8] = tested on: weeds ABUTH, AMATA, AMBEL, CHEAL, ERICA; test: Postemergence herbicide evaluation, overall average % weed control (ABUTH, AMATA, AMBEL, CHEAL, ERICA); format: in vivo; settings: post-emergence, read-out: Overall Ave % Weed Control; for pest or weed control at 280 g/ha: 280 g ae/ha; for pest or weed control at 560 g/ha: 560 g ae/ha
[9] = tested on: Glycine max (Enlist E3 traited soybeans, GLXMA); settings: Enlist E3 soybeans

For `CN(NC(=O)COc1ccc(Cl)cc1Cl)c1ccccc1` [Compound D11, 2-(2,4-Dichlorophenoxy)-N′-methyl-N′-phenylacetohydrazide], the “TGA Data (rate of weight loss, volatility)” value [1] was 0.06 µg/min, the “Overall Ave % Weed Control” value ([2]; 280 g ae/ha, 7 DAA) was 63% and the “Overall Ave % Weed Control” value ([2]; 280 g ae/ha, 14 DAA) was 76%. For the same compound, the “Overall Ave % Weed Control” value ([2]; 280 g ae/ha, 21 DAA) was 80%, the “Overall Ave % Weed Control” value ([2]; 560 g ae/ha, 7 DAA) was 69% and the “Overall Ave % Weed Control” value ([2]; 560 g ae/ha, 14 DAA) was 82%. For the same compound, the “Overall Ave % Weed Control” value ([2]; 560 g ae/ha, 21 DAA) was 89%.

`C[N+](C)(C)CCOC(=O)COc1ccc(Cl)cc1Cl.[Cl-]` [Compound E3, 2-(2-(2,4-Dichlorophenoxy)acetoxy)-N, N, N-trimethylethanaminium chloride] gave a pest or weed control at 280 g/ha ([3]; 168 h, 7 DAA) of 78%, a pest or weed control at 560 g/ha ([3]; 168 h, 7 DAA) of 78% and a pest or weed control at 280 g/ha ([3]; 336 h, 14 DAA) of 78%. It also gave a pest or weed control at 560 g/ha ([3]; 336 h, 14 DAA) of 85%, a pest or weed control at 280 g/ha ([3]; 504 h, 21 DAA) of 75% and a pest or weed control at 560 g/ha ([3]; 504 h, 21 DAA) of 83%. The pest or weed control at 280 g/ha ([4]; 168 h, 7 DAA) was 63%, the pest or weed control at 560 g/ha ([4]; 168 h, 7 DAA) was 75% and the pest or weed control at 280 g/ha ([4]; 336 h, 14 DAA) was 89%. For the same compound, the pest or weed control at 560 g/ha ([4]; 336 h, 14 DAA) was 93%, the pest or weed control at 280 g/ha ([4]; 504 h, 21 DAA) was 95% and the pest or weed control at 560 g/ha ([4]; 504 h, 21 DAA) was 98%. It also gave a pest or weed control at 280 g/ha ([5]; 168 h, 7 DAA) of 75%, a pest or weed control at 560 g/ha ([5]; 168 h, 7 DAA) of 83% and a pest or weed control at 280 g/ha ([5]; 336 h, 14 DAA) of 78%. The pest or weed control at 560 g/ha ([5]; 336 h, 14 DAA) was 93%, the pest or weed control at 280 g/ha ([5]; 504 h, 21 DAA) was 86% and the pest or weed control at 560 g/ha ([5]; 504 h, 21 DAA) was 97%. The pest or weed control at 280 g/ha ([6]; 168 h, 7 DAA) was 68%, the pest or weed control at 560 g/ha ([6]; 168 h, 7 DAA) was 70% and the pest or weed control at 280 g/ha ([6]; 336 h, 14 DAA) was 78%. For the same compound, the pest or weed control at 560 g/ha ([6]; 336 h, 14 DAA) was 73%, the pest or weed control at 280 g/ha ([6]; 504 h, 21 DAA) was 80% and the pest or weed control at 560 g/ha ([6]; 504 h, 21 DAA) was 77%. For the same compound, the pest or weed control at 280 g/ha ([7]; 168 h, 7 DAA) was 73%, the pest or weed control at 560 g/ha ([7]; 168 h, 7 DAA) was 78% and the pest or weed control at 280 g/ha ([7]; 336 h, 14 DAA) was 83%. It also gave a pest or weed control at 560 g/ha ([7]; 336 h, 14 DAA) of 88%, a pest or weed control at 280 g/ha ([7]; 504 h, 21 DAA) of 95% and a pest or weed control at 560 g/ha ([7]; 504 h, 21 DAA) of 93%. The “TGA Data (rate of weight loss, volatility)” value [1] was 2.4 µg/min, the pest or weed control at 280 g/ha ([8]; 168 h, 7 DAA) was 71% and the pest or weed control at 560 g/ha ([8]; 168 h, 7 DAA) was 77%. The pest or weed control at 280 g/ha ([8]; 336 h, 14 DAA) was 81%, the pest or weed control at 560 g/ha ([8]; 336 h, 14 DAA) was 86% and the pest or weed control at 280 g/ha ([8]; 504 h, 21 DAA) was 86%. The pest or weed control at 560 g/ha ([8]; 504 h, 21 DAA) was 89%, the “AVE. GLXMA, percent reduction in plant size relative to the untreated control” value ([9]; 280 g ae/ha, 7 DAA) was 0% and the “AVE. GLXMA, percent reduction in plant size relative to the untreated control” value ([9]; 280 g ae/ha, 14 DAA) was 0%. For the same compound, the “AVE. GLXMA, percent reduction in plant size relative to the untreated control” value ([9]; 280 g ae/ha, 21 DAA) was 3%, the “AVE. GLXMA, percent reduction in plant size relative to the untreated control” value ([9]; 560 g ae/ha, 7 DAA) was 0% and the “AVE. GLXMA, percent reduction in plant size relative to the untreated control” value ([9]; 560 g ae/ha, 14 DAA) was 0%. The “AVE. GLXMA, percent reduction in plant size relative to the untreated control” value ([9]; 560 g ae/ha, 21 DAA) was 0%.
